The values below come from paper PMC12118337, “Development of a Peptide Inhibitor Targeting the C‐SH2 Domain of the SHP2 Phosphatase” (Chembiochem, 2025).

Molecules are shown by their SMILES. Residues, ends and D or L forms follow the SMILES beside them. *: point of attachment. 5FAM = O=C1OC2(c3ccc(O)cc3Oc3cc(O)ccc32)c2ccc(C(=O)*)cc21; X1 = O=C(O)C(C(=O)O)*

The subject of this data set is WT Jurkat T cells. As to the kind of experiment: Peptide cellular uptake by confocal fluorescence microscopy, Jurkat. It counts as cell-based. The conditions noted are these: confocal fluorescence microscopy via FAM group, live cells, 50 or 100 μM peptide, 2 or 5 h, 37 °C; three independent experiments. How it is done: Multiply charged ions were selected for higher collisional dissociation (HCD) using a normalized collision energy (NCE) of 28%, fragmentation targeting for the 12 most abundant precursor ions. Fragment ions were measured with a resolution of 35,000 with a scan range of 200-2,000 m/z and an AGC target of 1E5. A dynamic exclusion time of 45 s with a maximum ion time of 120 ms and an isolation window of 3 m/z was set. Mass spectrometric data evaluation was performed using MaxQuant 1.6.5.0,[5] searching against a homo sapiens UniProt sequence database (2021/02; 218,230 entries including isoforms) supplemented with the protein sequences of the respective peptide used for the experiment. […] The protein list was analysed with Perseus v2.0.11.[6] […] The data was further analysed with the R language package and identified proteins compared with the CRAPome database (H. sapiens single step epitope tag AP-MS background contaminant list) to mitigate the influence of background contaminants (Table S2).[7] […] The significance thresholds were set to alpha 0.01 and a calculated log2 protein ratio of 4. […]
6. Peptide cellular uptake by fluorescence microscopy
The cell permeability of FAM-labelled peptides in WT Jurkat T cells (peptide 26 and peptide 28) and WT HeLa cells (peptide 28) was visualised by fluorescence microscopy. […]

`CC[C@H](C)[C@H](NC(=O)[C@@H](NC(=O)[C@H](C)NC(=O)[C@H](Cc1ccc(OC(C(=O)O)C(=O)O)cc1)NC(=O)[C@H](CCC(=O)O)NC(=O)[C@@H](NC(=O)[C@H](CCC(N)=O)NC(=O)c1ccc2c(c1)C(=O)OC21c2ccc(O)cc2Oc2cc(O)ccc21)[C@@H](C)O)[C@@H](C)O)C(=O)N[C@@H](CCCCN)C(=O)N[C@@H](Cc1c[nH]cn1)C(=O)N1CCC[C@H]1C(N)=O` [peptide 26] (5FAM-QTEY(X1)ATIKHP-NH2): the “cellular uptake in Jurkat cells” value is listed as “no cell uptake”.
